Results published in article PMC6920949, “Muscle to Brain Partitioning as Measure of Transporter-Mediated Efflux at the Rat Blood–Brain Barrier and Its Implementation into Compound Optimization in Drug Discovery” (Pharmaceutics, 2019).

Tests used:
[1] = design: method as in PMID 21934030; details: rat, brain slice method; cited from earlier work
[2] = rat, in vivo
Experimental: (§1) Animal experiments were performed in male rats of different strains (Han Wistar, Sprague Dawley, Lister Hooded, Long-Evans, supplied by commercial breeders, typically Charles River, Sulzfeld, Germany or Janvier Labs, Saint-Berthevin Cedex, France). Only two studies were done in female animals. Typically three animals were used per experiment. […] Compounds were dosed orally, intravenously, subcutaneously, or intraperitoneally. For tissue sampling animals were anaesthetized with Ketamin/Inactin. After dissection of the cisterna magna, approximately 50 µL CSF was collected via a 0.4-mm cannula. Blood was collected from the retroorbital plexus into K3EDTA coated vials (Sarstedt, Nümbrecht, Germany) and plasma was collected by centrifugation for 5 min at approximately 5000 rpm. Animals were exsanguinated via the vena cava. The femoral muscle was prepared. A small piece (approximately 0.2–0.5 g) was excised, rinsed in cold physiological NaCl, and the remaining fat and superficial vessels were removed. For brain isolation, skin and muscle of head and neck were removed. The cranium was opened with a bone trimmer by one central and two lateral incisions. […]
(§2) Prior to bioanalysis plasma samples and dialysates were spiked with internal standard solution and diluted with acetonitrile for protein precipitation. […] Quantification was performed using external calibration.

[3] = design: method as in PMID 28880093; details: dog cerebrum, cerebellum, brain stem; cited from earlier work
[4] = Kp,uu,brain by brain homogenate method; assay type: in vivo; details: brain and plasma (unbound), rat, Table 4, read-out: Kp,uu,brain(hom) (This publication)
Text: Under steady-state conditions, Kp,uu,brain defines the ratio between the unbound drug concentration in brain (Cu,brain), i.e., the interstitial fluid (ISF) and the unbound drug concentration in plasma(Cu,plasma) (Equation (1)). Kp,uu,brain = Cu,brain/Cu,plasma(1) Using microdialysis, the concentrations in brain ISF can be determined. […] Kp,uu,brain = Cu,brain/Cu,plasma = (Cbrain × fu,brain)/(Cplasma × fu,plasma) = Kp,brain × (fu,brain/fu,plasma)(2) where Cplasma and Cbrain are the plasma and brain concentration, respectively. Kp is the partition coefficient of total drug in brain and plasma:Kp,brain = Cbrain/Cplasma(3)
Animal experiments were performed in male rats of different strains (Han Wistar, Sprague Dawley, Lister Hooded, Long-Evans, supplied by commercial breeders, typically Charles River, Sulzfeld, Germany or Janvier Labs, Saint-Berthevin Cedex, France). Only two studies were done in female animals. Typically three animals were used per experiment. […] Compounds were dosed orally, intravenously, subcutaneously, or intraperitoneally. […]
Binding of research compounds to plasma protein and tissue homogenates was determined using the equilibrium dialysis method as described previously [9, 15]. […] Unbound plasma concentration (fu,plasma) was calculated as:fu,plasma = (Cplasma − Cbuffer)/Cplasma,(7) where Cplasma and Cbuffer are the plasma and buffer concentration, respectively.

[5] = Kp,br/mu: brain to skeletal muscle partitioning, tissue distribution study in rats; details: rat, brain and skeletal (femoral) muscle
Experimental: as §1, §2

[6] = compounds without blood-brain barrier efflux; cited from earlier work

SMILES: NC(=O)N1c2ccccc2C=Cc2ccccc21 [Carbamazapine]
- Kp,uu,brain (Literature) [1]: 0.771
- Kp,br/mu (This publication) [2]: 1.44

SMILES: C=C[C@H]1C[N@@]2CC[C@H]1C[C@@H]2[C@@H](O)c1ccnc2ccc(OC)cc12 [Quinidine]
- effect of up to 5-fold P-gp and BCRP expression differences between brain regions on Kp,brain [3]: did not affect
- Kp uu [4]: 0.0276
- Kp [5]: 0.056

SMILES: Cc1nnc2n1-c1sc(CCC(=O)N3CCOCC3)cc1C(c1ccccc1Cl)=NC2 [apafant]
- effect of up to 5-fold P-gp and BCRP expression differences between brain regions on Kp,brain [3]: did not affect

SMILES: Cc1ncc2n1-c1ccc(Cl)cc1C(c1ccccc1F)=NC2 [midazolam]
- distribution into brain and skeletal muscle [6]: very similar distributions into brain and skeletal muscle
